Experimental data: ChEMBL document CHEMBL1201862, “PubChem BioAssay data set” (2004)
“And” between values parts separate entries of the source, which are not always exact repeats. Identical values can stand only once.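 Method: 48-hour compound exposure of cells in 96-well plates, five concentrations, linear interpolation of endpoints. At the GI50, growth is halved.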 The source made the active and inactive calls. Cut-off read from the data, not from the text of the source: active = GI50 up to about 1.1 µM and inactive = higher.

Key:
Experiment in all cases: inhibition of tumour cell growth, NCI panel, 48 h
786-0 = system: 786-0
A498 = system: A498
A549 = system: A549
CAKI-1 = system: CAKI-1
COLO 205 = system: COLO 205
HCC 2998 = system: HCC 2998
HL-60 = system: HL-60
HOP-92 = system: HOP-92
IGROV-1 = system: IGROV-1
K562 = system: K562
RPMI-8226 = system: RPMI-8226
SF-268 = system: SF-268
SN12C = system: SN12C
SNB-75 = system: SNB-75
TK-10 = system: TK-10
UACC-257 = system: UACC-257
UACC-62 = system: UACC-62
DU-145 = system: DU-145
NCI/ADR-RES = system: NCI/ADR-RES
SW-620 = system: SW-620

SMILES | GI50 (786-0) | GI50 (A498) | GI50 (A549) | GI50 (CAKI-1) | GI50 (COLO 205) | GI50 (HCC 2998) | GI50 (HL-60) | GI50 (HOP-92) | GI50 (IGROV-1) | GI50 (K562) | GI50 (RPMI-8226) | GI50 (SF-268) | GI50 (SN12C) | GI50 (SNB-75) | GI50 (TK-10) | GI50 (UACC-257) | GI50 (UACC-62) | GI50 (DU-145) | GI50 (NCI/ADR-RES) | GI50 (SW-620)
CCOC(=O)C1=C(OC(OCC)C([Se]c2ccccc2)C(C)C)CCC1 (stereo not given) | 6.82 µM (inactive) | 26.5 µM (inactive) | 28.8 µM (inactive) | 43.5 µM (inactive) | 14.7 µM (inactive) | 36.8 µM (inactive) | 3.24 µM (inactive) | 27.5 µM (inactive) | 18.3 µM (inactive) | 37 µM (inactive) | 10.1 µM (inactive) | 4.73 µM (inactive) | 10.4 µM (inactive) | 23 µM (inactive) | 47 µM (inactive) | 23.2 µM (inactive) | 14.2 µM (inactive) | – | – | –
O=C(/C=C(\O)c1cc(-c2ccccc2)n(-c2ccccc2)n1)c1ccccc1 | 3.27 µM (inactive) | > 100 µM (inactive) | 4.4 µM (inactive) | 3.13 µM (inactive) | 4.69 µM (inactive) | 18.2 µM (inactive) | 4.43 µM (inactive) | – | 2.51 µM (inactive) | 3.46 µM (inactive) | 1.8 µM (inactive) | 24.2 µM (inactive) | 2.56 µM (inactive) | – | 4.46 µM (inactive) | 59.4 µM (inactive) | 2.99 µM (inactive) | 3.61 µM (inactive) | 5.38 µM (inactive) | 4.62 µM (inactive)
COc1ccc(/C=C/c2cc(OC)c(OC)c(OC)c2)cc1O[Si](C)(C)C(C)(C)C | 10.4 µM (inactive) | 12.7 µM (inactive) | 14 µM (inactive) | 41.9 µM (inactive) | 15.7 µM (inactive) | 43.5 µM (inactive) | – | 15.6 µM (inactive) | 8.95 µM (inactive) | – | 0.0494 µM (active) | 15.8 µM (inactive) | 7.16 µM (inactive) | 2.03 µM (inactive) | 27.1 µM (inactive) | 10.4 µM (inactive) | 3.35 µM (inactive) | 7.11 µM (inactive) | – | 2.91 µM (inactive)
CCOC(=O)C(NC(=O)Nc1ccc(Cl)cc1)(OC)C(F)(F)F (stereo not given) | 13.8 µM (inactive) | 14 µM (inactive) | 8.49 µM (inactive) | 74.3 µM (inactive) | 12.2 µM (inactive) | 7.45 µM (inactive) | 9.68 µM (inactive) | – | > 100 µM (inactive) | 0.832 µM (active) | – | 27.7 µM (inactive) | 41 µM (inactive) | > 100 µM (inactive) | 30.7 µM (inactive) | 21.9 µM (inactive) | – | – | 4.66 µM (inactive) | 64.4 µM (inactive)
COc1nc2ncc([C@@H](OC(C)=O)[C@@H](COC(C)=O)OC(C)=O)nc2c(=O)[nH]1 | > 100 µM (inactive) | > 100 µM (inactive) | > 100 µM (inactive) | > 100 µM (inactive) | > 100 µM (inactive) | – | > 100 µM (inactive) | – | > 100 µM (inactive) | > 100 µM (inactive) | > 100 µM (inactive) | > 100 µM (inactive) and 83.4 µM (inactive) | > 100 µM (inactive) | – | > 100 µM (inactive) | > 100 µM (inactive) | > 100 µM (inactive) | > 100 µM (inactive) | > 100 µM (inactive) | > 100 µM (inactive)
NNC(=S)N/N=C(/C(=O)Nc1ccc([N+](=O)[O-])cc1)c1nc2ccc([N+](=O)[O-])cc2nc1O | > 100 µM (inactive) | > 100 µM (inactive) | > 100 µM (inactive) | > 100 µM (inactive) | > 100 µM (inactive) | > 100 µM (inactive) | 52.8 µM (inactive) | > 100 µM (inactive) | > 100 µM (inactive) | > 100 µM (inactive) | > 100 µM (inactive) | > 100 µM (inactive) | > 100 µM (inactive) | > 100 µM (inactive) | > 100 µM (inactive) | > 100 µM (inactive) | > 100 µM (inactive) | – | – | > 100 µM (inactive)
CC(=O)C1C(=O)C(=O)N(c2ccccc2C(C)C)C1=O (stereo not given) | > 100 µM (inactive) | > 100 µM (inactive) | > 100 µM (inactive) | > 100 µM (inactive) | > 100 µM (inactive) | > 100 µM (inactive) | > 100 µM (inactive) | > 100 µM (inactive) | > 100 µM (inactive) | > 100 µM (inactive) | > 100 µM (inactive) | > 100 µM (inactive) | > 100 µM (inactive) | > 100 µM (inactive) | > 100 µM (inactive) | > 100 µM (inactive) | > 100 µM (inactive) | – | – | > 100 µM (inactive)
CC(C1=CC=C2[C@@H]3CCC4CC(N(C)C)CC[C@]4(C)C3CC[C@]12C)N(C)C=O (stereo not given in full) | > 100 µM (inactive) | 6.49 µM (inactive) | > 100 µM (inactive) | > 100 µM (inactive) | > 100 µM (inactive) | > 100 µM (inactive) | > 100 µM (inactive) | > 100 µM (inactive) | > 100 µM (inactive) | 36.1 µM (inactive) | 78.3 µM (inactive) | > 100 µM (inactive) | > 100 µM (inactive) | 52.8 µM (inactive) | > 100 µM (inactive) | – | > 100 µM (inactive) | – | – | > 100 µM (inactive)
COc1ccc(COC2CC(OC)OC(C)C2OC(=O)c2ccccc2)cc1 (stereo not given) | 74.1 µM (inactive) | 61.5 µM (inactive) | 33 µM (inactive) | 36.5 µM (inactive) | 34.6 µM (inactive) | 43.1 µM (inactive) | 20.7 µM (inactive) | 50 µM (inactive) | 90.4 µM (inactive) | 27.2 µM (inactive) | 18.5 µM (inactive) | 39.8 µM (inactive) | 57.4 µM (inactive) | 38.3 µM (inactive) | 63.7 µM (inactive) | 40.1 µM (inactive) | 32.9 µM (inactive) | – | – | 46.1 µM (inactive)
N#C/N=C(/N)NCN/C(N)=N\C#N | 23.1 µM (inactive) | > 100 µM (inactive) | > 100 µM (inactive) | > 100 µM (inactive) | 64.6 µM (inactive) | > 100 µM (inactive) | > 100 µM (inactive) | > 100 µM (inactive) | > 100 µM (inactive) | 43.7 µM (inactive) | > 100 µM (inactive) | > 100 µM (inactive) | > 100 µM (inactive) | > 100 µM (inactive) | > 100 µM (inactive) | > 100 µM (inactive) | > 100 µM (inactive) | – | – | 17.4 µM (inactive)
Nc1nc2cc(CNc3ccc(C(=O)O)cc3)ccc2nc1-c1ccccc1 | > 100 µM (inactive) | > 100 µM (inactive) | > 100 µM (inactive) | – | > 100 µM (inactive) | > 100 µM (inactive) | > 100 µM (inactive) | – | > 100 µM (inactive) | > 100 µM (inactive) | > 100 µM (inactive) | > 100 µM (inactive) | > 100 µM (inactive) | 66.5 µM (inactive) | > 100 µM (inactive) | > 100 µM (inactive) | > 10 µM (inactive) | 44.6 µM (inactive) | > 100 µM (inactive) | > 100 µM (inactive)
Cc1c(NC(=O)CSC(=S)N(C)C)c(=O)n(-c2ccccc2)n1C | > 100 µM (inactive) | – | > 100 µM (inactive) | > 100 µM (inactive) | > 100 µM (inactive) | > 100 µM (inactive) | – | – | > 100 µM (inactive) | > 100 µM (inactive) | > 100 µM (inactive) | > 100 µM (inactive) | > 100 µM (inactive) | > 100 µM (inactive) | > 100 µM (inactive) | > 100 µM (inactive) | – | > 100 µM (inactive) | > 100 µM (inactive) | > 100 µM (inactive)
COc1ccc(O)cc1 [MEQUINOL] | 92 µM (inactive) | > 100 µM (inactive) | > 100 µM (inactive) | 94.4 µM (inactive) | > 100 µM (inactive) | > 100 µM (inactive) | 44.1 µM (inactive) | 44.1 µM (inactive) | > 100 µM (inactive) | 68.1 µM (inactive) | > 100 µM (inactive) | 55 µM (inactive) | > 100 µM (inactive) | > 100 µM (inactive) | > 100 µM (inactive) | > 100 µM (inactive) | 24.8 µM (inactive) | – | – | > 100 µM (inactive)
O=C(O)CCCCCO | > 100 µM (inactive) | > 100 µM (inactive) | > 100 µM (inactive) | > 100 µM (inactive) | > 100 µM (inactive) | > 100 µM (inactive) | > 100 µM (inactive) | > 100 µM (inactive) | > 100 µM (inactive) | > 100 µM (inactive) | > 100 µM (inactive) | > 100 µM (inactive) | > 100 µM (inactive) | > 100 µM (inactive) | > 100 µM (inactive) | > 100 µM (inactive) | > 100 µM (inactive) | – | – | > 100 µM (inactive)
CCOC(=O)/C(=C/c1cccc(Cl)c1)N(CC)CC | 67.9 µM (inactive) | > 100 µM (inactive) | 36.2 µM (inactive) | 50.5 µM (inactive) | > 100 µM (inactive) | 79.1 µM (inactive) | 49.2 µM (inactive) | 25.5 µM (inactive) | 49.4 µM (inactive) | 52.2 µM (inactive) | 36.7 µM (inactive) | 52.7 µM (inactive) | 45.9 µM (inactive) | 70.5 µM (inactive) | > 100 µM (inactive) | 55.8 µM (inactive) | 33.9 µM (inactive) | – | – | 59 µM (inactive)
C=C(CCCCC)CN1CCCC1C(C)=O (stereo not given) | 35.5 µM (inactive) | 35 µM (inactive) | 32.9 µM (inactive) | 34.7 µM (inactive) | 17.1 µM (inactive) | 32.4 µM (inactive) | 4.32 µM (inactive) | 20.3 µM (inactive) | 33.2 µM (inactive) | 15 µM (inactive) | 13.1 µM (inactive) | 42.3 µM (inactive) | 29.1 µM (inactive) | 24.7 µM (inactive) | 38.1 µM (inactive) | 26.6 µM (inactive) | 25.4 µM (inactive) | – | – | > 57.9 µM (inactive)
